Assay results reported in paper PMC7582905, “Effect of Disulfide Cyclization of Ultrashort Cationic Lipopeptides on Antimicrobial Activity and Cytotoxicity” (International Journal of Molecular Sciences, 2020).
≈ marks a conversion by molar mass, not a printed value. Where a SMILES comes first, the peptide text is derived from it. The star is where a group is joined. Palmitoyl = CCCCCCCCCCCCCCCC(=O)*

Key:
Format in all cases: cell-based
[1] = tested on: Candida albicans ATCC 10231; conditions: ATCC 10231, 24 h
Description: (§1) The Staphylococcus aureus ATCC 25923, Staphylococcus epidermidis ATCC 14990, Escherichia coli ATCC 25922, Pseudomonas aeruginosa ATCC 9027, Candida albicans ATCC 10231, Candida glabrata ATCC 15126, Candida lipolytica PCM 2680-FY, and Candida tropicalis PCM 2709-FY strains were acquired from the Polish Collection of Microorganisms (PCM, Polish Academy of Sciences, Wrocław, Poland) and from the American Type Culture Collection (ATCC). All the strains were stored at −80 °C in Roti-Store cryo vials and before the tests were transferred into fresh Mueller–Hinton broth (MHB, Biocorp, Warsaw, Poland) for bacteria or RPMI-1640 (Sigma-Aldrich, Steinheim, Germany) for fungi and incubated for 24 h at 37 °C. Then, the cultures were seeded on Mueller–Hinton agar (BioMaxima, Lublin, Poland) or Sabouraud dextrose agar (SDA, BioMaxima, Lublin, Poland) plates, respectively, and incubated as just mentioned. These agar cultures were used for further microbiological assays. Cell densities for all assays were adjusted spectrophotometrically (Multiskan GO Microplate Spectrophotometer, Thermo Fisher Scientific, Vantaa, Finland) at 600 and 660 nm for bacteria and fungi, respectively.
(§2) The MICs were determined by broth microdilution method according to the Clinical and Laboratory Standard Institute guidelines For this purpose, initial inoculums of bacteria (5 × 10^5 CFU/mL) in MHB and yeasts (2 × 10^3 CFU/mL) in RPMI-1640 with 2% D-glucose were exposed to the ranging concentration of lipopeptides (0.5–256 μg/mL) and incubated at 37 °C for 18 h and 24 h, respectively. The experiments were conducted on 96-well microtiter polystyrene plates. The growth was assessed visually after incubation and the MIC was assumed as the lowest peptide concentration at which a noticeable growth of microorganisms was inhibited. All experiments were conducted in triplicate.

[2] = tested on: Candida glabrata ATCC 15126; conditions: ATCC 15126, 24 h
Description: as §1, §2

[3] = tested on: Candida lipolytica PCM 2680-FY; conditions: 24 h
Description: as §1, §2

[4] = tested on: Candida tropicalis PCM 2709-FY; conditions: PCM 2709-FY, 24 h
Description: as §1, §2

[5] = tested on: Escherichia coli ATCC 25922; conditions: ATCC 25922, 18 h
Description: as §1, §2

[6] = tested on: Pseudomonas aeruginosa ATCC 9027; conditions: ATCC 9027, 18 h
Description: as §1, §2

[7] = tested on: Staphylococcus epidermidis ATCC 14990; conditions: ATCC 14990, 18 h
Description: as §1, §2

[8] = tested on: Candida albicans ATCC 10231; conditions: ATCC 10231, 24 h; remark: listed apart in the source
Description: as §1
(§3) MBECs were determined on 96-well polystyrene flat-bottom plates. For this purpose, 24 h cultures of microorganisms were diluted to obtain final density 5.0 × 10^5 CFU/mL and 2.0 × 10^5 CFU/mL of bacteria and fungi, respectively. Briefly, 100 µL of cell suspension was added into the test plates. After 24 h of incubation at 37 °C the wells were rinsed three times with a phosphate buffer saline (PBS, pH 7.4) to remove non-adherent cells. Subsequently, 100 μL of the test compounds in concentration range (0.5–256 μg/mL) were added to each well. After 24 h of incubation at 37 °C, 20 μL of a cell viability reagent was added (resazurin, 4 g/L; Sigma Aldrich, St. Louis, MO, USA). The MBEC was read after 1 h. The determined values were recorded as the lowest concentration at which the reduction of resazurin (from blue to pink) was lower or equal to 10 ± 0.5% as compared to the positive (100%) and negative (0%) controls. The reduction was monitored by measuring absorbance at 570 nm (reduced) and 600 nm (oxidized) using a microplate spectrophotometer (Multiskan GO Microplate Spectrophotometer, Thermo Fisher Scientific, Vantaa, Finland). All experiments were conducted in triplicate.

[9] = tested on: Candida glabrata ATCC 15126; conditions: ATCC 15126, 24 h; remark: listed apart in the source
Description: as §1, §3

[10] = tested on: Candida lipolytica PCM 2680-FY; conditions: 24 h; remark: listed apart in the source
Description: as §1, §3

[11] = tested on: Candida tropicalis PCM 2709-FY; conditions: PCM 2709-FY, 24 h; remark: listed apart in the source
Description: as §1, §3

[12] = tested on: Escherichia coli ATCC 25922; conditions: ATCC 25922, 24 h
Description: as §1, §3

[13] = tested on: Pseudomonas aeruginosa ATCC 9027; conditions: ATCC 9027, 24 h
Description: as §1, §3

[14] = tested on: Staphylococcus epidermidis ATCC 14990; conditions: ATCC 14990, 24 h
Description: as §1, §3

[15] = tested on: human cervical adenocarcinoma cell line (HeLa S3); experiment: MTT assay; conditions: 24 h incubation at 37 °C, six replicates per concentration, repeated at least twice
Description: (§4) To assess the cytotoxicity of the test lipopeptides (IC50), the classic MTT assay on 96-well polystyrene plates was performed for human keratinocytes (HaCaT) and human cervical adenocarcinoma cell line (HeLa S3) acquired from the ATCC. The assay utilizes colorimetric determination of the cell metabolic activity and the color intensity reflects the number of live cells that can be measured spectrophotometrically. The cell line was cultured in a Dulbecco’s modified Eagle Medium (Invitrogen) supplemented with 10% fetal bovine serum (v/v), 100 units/mL of penicillin, 100 μg/mL of streptomycin, and 2 mM l-glutamine and was stored at 37 °C in a humidified 5% CO2 incubator. Briefly, a day after plating of 500 cells per well, a series of concentrations (0.1–200 μg/mL) of the test compounds were applied. DMSO was added to the control cells at a final concentration of 1.0% (v/v), which was related to the maximal concentration of the solvent compounds used in the experiment. After 24 h of incubation with the lipopeptides at 37 °C in a humidified 5% CO2 incubator, a medium containing 1 mg/mL of MTT (3-(4,5-dimethylthiazol-2-yl)-2,5-diphenyltetrazolium bromide) was added to the wells up to a final concentration of 0.5 mg/mL. Subsequently, the plates were incubated at 37 °C for 4 h. Then, the medium was removed by suction, and the formazan product was solubilized with DMSO. The background absorbance at 630 nm was subtracted from that at 570 nm for each well (Epoch, BioTek Instruments, Winooski, VT, USA). Six replicates were conducted for each concentration. All experiments were repeated at least twice and the resulting IC50 values were calculated with a GraFit 7 software (v. 7.0, Erithacus, Berkley, CA, USA).

[16] = tested on: human keratinocytes (HaCaT); experiment: MTT assay; conditions: 24 h incubation at 37 °C, six replicates per concentration, repeated at least twice
Description: as §4

## CCCCCCCCCCCCCCCC(=O)N[C@@H](CCCNC(=N)N)C(=O)N[C@@H](CCCNC(=N)N)C(=O)N[C@@H](CCCCN)C(=O)N[C@@H](CCCCN)C(N)=O [L7, C16-RRKK-NH2] (Palmitoyl-RRKK-NH2)
[1]
  MIC C. albicans: 32 µg/mL (≈ 38.8 µM)
[2]
  MIC C. glabrata: 16 µg/mL (≈ 19.4 µM)
[3]
  MIC C. lipolytica: 8 µg/mL (≈ 9.71 µM)
[4]
  MIC C. tropicalis: 8 µg/mL (≈ 9.71 µM)
[5]
  MIC E. coli: 8 µg/mL (≈ 9.71 µM)
[6]
  MIC P. aeruginosa: 64 µg/mL (≈ 77.7 µM)
[7]
  MIC S. epidermidis: 4 µg/mL (≈ 4.85 µM)
[8]
  MBEC C. albicans: 64 µg/mL
[9]
  MBEC C. glabrata: 128 µg/mL
[10]
  MBEC C. lipolytica: 16 µg/mL
[11]
  MBEC C. tropicalis: 64 µg/mL
[12]
  MBEC E. coli: 256 µg/mL
[13]
  MBEC P. aeruginosa: 256 µg/mL
[14]
  MBEC S. epidermidis: 64 µg/mL
[15]
  HeLa IC50: 3.0 ± 0.4 µg/mL
[16]
  HaCaT IC50: 8.1 ± 1.1 µg/mL
